{
  "source": "paper PMC9386018",
  "about": "“A lymphatic-absorbed multi-targeted kinase inhibitor for myelofibrosis therapy” (Nature Communications, 2022)",
  "assay": "Pharmacokinetic analysis of plasma after intravenous and oral dosing",
  "settings": "for concentration at 0.167 h / concentration at 0.5 h / concentration at 1 h / concentration at 2 h / concentration at 4 h / concentration at 7 h / concentration at 16 h: female, CD-1, mouse, plasma",
  "note": "Where “and” joins values, the source holds several entries; their conditions need not be identical. Identical values can stand only once.",
  "experimental": "Samples were centrifuged at 15,000 rpm for 10 min, then blood plasma was collected from the upper layer and frozen at −80 °C until analysis. […] Sample processing, chromatographic separation, MS, and MS/MS parameters used for analysis were determined by the core. […] Standard curves for peak area ratio of compound to internal standard (Astd/AIstd) vs. compound concentration were used to determine sample analyte concentrations through linear regression with a weighting average of 1/X^2. […] All pharmacokinetic parameters were estimated using non-compartmental analysis with Phoenix/WINONLIN, and provided by the core along with calculated sample analyte concentrations. Data was generated from n ≥ 3 individual animals sampled per time point per compound for each method of dosing.",
  "data": [
    {"smiles": "O=C(O)c1ccc(F)c(F)c1Nc1ccc(I)cc1F", "note": "[PD315209, reference compound]", "values": [
      {"measurement": "Concentration", "setting": "Supplementary Figure 6a, i.v., Time 0.167 h, individual replicates", "result": "779 ng/mL and 846 ng/mL"},
      {"measurement": "Concentration", "setting": "Supplementary Figure 6a, i.v., Time 0.5 h, individual replicates", "result": "677 ng/mL and 624 ng/mL"},
      {"measurement": "Concentration", "setting": "Supplementary Figure 6a, i.v., Time 1 h, individual replicates", "result": "440 ng/mL and 492 ng/mL"},
      {"measurement": "Concentration", "setting": "Supplementary Figure 6a, i.v., Time 2 h, individual replicates", "result": "490 ng/mL and 355 ng/mL"},
      {"measurement": "Concentration", "setting": "Supplementary Figure 6a, i.v., Time 4 h, individual replicates", "result": "243 ng/mL and 164 ng/mL"},
      {"measurement": "Concentration", "setting": "Supplementary Figure 6a, i.v., Time 7 h, individual replicates", "result": "72.7 ng/mL and 57.8 ng/mL"},
      {"measurement": "Concentration", "setting": "Supplementary Figure 6a, i.v., Time 16 h, individual replicates", "result": 4.08, "unit": "ng/mL"},
      {"measurement": "Concentration", "setting": "Supplementary Figure 6a, i.v., Time 24 h, individual replicates", "result": "5.08 ng/mL and 1.82 ng/mL and 2.98 ng/mL"},
      {"measurement": "Concentration", "setting": "Supplementary Figure 6a, p.o., Time 0.167 h, individual replicates", "result": "507 ng/mL and 993 ng/mL and 283 ng/mL"},
      {"measurement": "Concentration", "setting": "Supplementary Figure 6a, p.o., Time 0.5 h, individual replicates", "result": "891 ng/mL and 764 ng/mL"},
      {"measurement": "Concentration", "setting": "Supplementary Figure 6a, p.o., Time 1 h, individual replicates", "result": "1540 ng/mL and 1240 ng/mL"},
      {"measurement": "Concentration", "setting": "Supplementary Figure 6a, p.o., Time 2 h, individual replicates", "result": "490 ng/mL and 399 ng/mL"},
      {"measurement": "Concentration", "setting": "Supplementary Figure 6a, p.o., Time 4 h, individual replicates", "result": "412 ng/mL and 334 ng/mL"},
      {"measurement": "Concentration", "setting": "Supplementary Figure 6a, p.o., Time 7 h, individual replicates", "result": "463 ng/mL and 555 ng/mL"},
      {"measurement": "Concentration", "setting": "Supplementary Figure 6a, p.o., Time 16 h, individual replicates", "result": "362 ng/mL and 491 ng/mL"},
      {"measurement": "Concentration", "setting": "Supplementary Figure 6a, p.o., Time 24 h, individual replicates", "result": "443 ng/mL and 223 ng/mL and 212 ng/mL"},
      {"measurement": "concentration at 0.167 h", "setting": "iv, 15 mg kg^−1, Concentration, Supplementary Figure 6a, Time 0.167 h, individual replicates", "result": 934, "unit": "ng/mL"},
      {"measurement": "concentration at 0.5 h", "setting": "iv, 15 mg kg^−1, Concentration, Supplementary Figure 6a, Time 0.5 h, individual replicates", "result": 923, "unit": "ng/mL"},
      {"measurement": "concentration at 1 h", "setting": "iv, 15 mg kg^−1, Concentration, Supplementary Figure 6a, Time 1 h, individual replicates", "result": 602, "unit": "ng/mL"},
      {"measurement": "concentration at 2 h", "setting": "iv, 15 mg kg^−1, Concentration, Supplementary Figure 6a, Time 2 h, individual replicates", "result": 572, "unit": "ng/mL"},
      {"measurement": "concentration at 4 h", "setting": "iv, 15 mg kg^−1, Concentration, Supplementary Figure 6a, Time 4 h, individual replicates", "result": 282, "unit": "ng/mL"},
      {"measurement": "concentration at 7 h", "setting": "iv, 15 mg kg^−1, Concentration, Supplementary Figure 6a, Time 7 h, individual replicates", "result": 99.2, "unit": "ng/mL"},
      {"measurement": "concentration at 16 h", "setting": "iv, 15 mg kg^−1, Concentration, Supplementary Figure 6a, Time 16 h, individual replicates", "result": 7.87, "unit": "ng/mL"},
      {"measurement": "concentration at 0.167 h", "setting": "iv, 15 mg kg^−1, Concentration, Time 0.167 h, individual animals, Supplementary Figure 12a", "result": 306, "unit": "ng/mL"},
      {"measurement": "concentration at 0.167 h", "setting": "iv, 15 mg kg^−1, Concentration, Time 0.167 h, individual animals, Supplementary Figure 12b", "result": 641, "unit": "ng/mL"},
      {"measurement": "concentration at 0.5 h", "setting": "iv, 15 mg kg^−1, Concentration, Time 0.5 h, individual animals, Supplementary Figure 12a", "result": 175, "unit": "ng/mL"},
      {"measurement": "concentration at 0.5 h", "setting": "iv, 15 mg kg^−1, Concentration, Time 0.5 h, individual animals, Supplementary Figure 12b", "result": 938, "unit": "ng/mL"},
      {"measurement": "concentration at 1 h", "setting": "iv, 15 mg kg^−1, Concentration, Time 1 h, individual animals, Supplementary Figure 12a", "result": 146, "unit": "ng/mL"},
      {"measurement": "concentration at 1 h", "setting": "iv, 15 mg kg^−1, Concentration, Time 1 h, individual animals, Supplementary Figure 12b", "result": 783, "unit": "ng/mL"},
      {"measurement": "concentration at 2 h", "setting": "iv, 15 mg kg^−1, Concentration, Time 2 h, individual animals, Supplementary Figure 12a", "result": 86.8, "unit": "ng/mL"},
      {"measurement": "concentration at 2 h", "setting": "iv, 15 mg kg^−1, Concentration, Time 2 h, individual animals, Supplementary Figure 12b", "result": 510, "unit": "ng/mL"},
      {"measurement": "concentration at 4 h", "setting": "iv, 15 mg kg^−1, Concentration, Time 4 h, individual animals, Supplementary Figure 12b", "result": 322, "unit": "ng/mL"},
      {"measurement": "concentration at 7 h", "setting": "iv, 15 mg kg^−1, Concentration, Time 7 h, individual animals, Supplementary Figure 12a", "result": 22.8, "unit": "ng/mL"},
      {"measurement": "concentration at 0.167 h", "setting": "po, 200 mg kg^−1, Concentration, Time 0.167 h, individual animals, Supplementary Figure 12a", "result": 155, "unit": "ng/mL"},
      {"measurement": "concentration at 0.5 h", "setting": "po, 200 mg kg^−1, Concentration, Time 0.5 h, individual animals, Supplementary Figure 12a", "result": 968, "unit": "ng/mL"},
      {"measurement": "concentration at 0.5 h", "setting": "po, 200 mg kg^−1, Concentration, Time 0.5 h, individual animals, Supplementary Figure 12b", "result": 692, "unit": "ng/mL"},
      {"measurement": "concentration at 1 h", "setting": "po, 200 mg kg^−1, Concentration, Time 1 h, individual animals, Supplementary Figure 12b", "result": 841, "unit": "ng/mL"},
      {"measurement": "concentration at 2 h", "setting": "po, 200 mg kg^−1, Concentration, Time 2 h, individual animals, Supplementary Figure 12a", "result": 2500, "unit": "ng/mL"},
      {"measurement": "concentration at 4 h", "setting": "po, 200 mg kg^−1, Concentration, Time 4 h, individual animals, Supplementary Figure 12a", "result": 3420, "unit": "ng/mL"},
      {"measurement": "concentration at 7 h", "setting": "po, 200 mg kg^−1, Concentration, Time 7 h, individual animals, Supplementary Figure 12a", "result": 1870, "unit": "ng/mL"},
      {"measurement": "concentration at 7 h", "setting": "po, 200 mg kg^−1, Concentration, Time 7 h, individual animals, Supplementary Figure 12b", "result": 1070, "unit": "ng/mL"},
      {"measurement": "concentration at 16 h", "setting": "po, 200 mg kg^−1, Concentration, Time 16 h, individual animals, Supplementary Figure 12b", "result": 2410, "unit": "ng/mL"},
      {"measurement": "concentration at 0.5 h", "setting": "po, 400 mg kg^−1, Concentration, Supplementary Figure 6a, Time 0.5 h, individual replicates", "result": 644, "unit": "ng/mL"},
      {"measurement": "concentration at 1 h", "setting": "po, 400 mg kg^−1, Concentration, Supplementary Figure 6a, Time 1 h, individual replicates", "result": 1700, "unit": "ng/mL"},
      {"measurement": "concentration at 2 h", "setting": "po, 400 mg kg^−1, Concentration, Supplementary Figure 6a, Time 2 h, individual replicates", "result": 787, "unit": "ng/mL"},
      {"measurement": "concentration at 4 h", "setting": "po, 400 mg kg^−1, Concentration, Supplementary Figure 6a, Time 4 h, individual replicates", "result": 398, "unit": "ng/mL"},
      {"measurement": "concentration at 7 h", "setting": "po, 400 mg kg^−1, Concentration, Supplementary Figure 6a, Time 7 h, individual replicates", "result": 473, "unit": "ng/mL"},
      {"measurement": "concentration at 16 h", "setting": "po, 400 mg kg^−1, Concentration, Supplementary Figure 6a, Time 16 h, individual replicates", "result": 572, "unit": "ng/mL"},
      {"measurement": "Concentration", "setting": "i.v., Time 0.167 h, individual animals, Supplementary Figure 12a", "result": "324 ng/mL and 426 ng/mL"},
      {"measurement": "Concentration", "setting": "i.v., Time 0.5 h, individual animals, Supplementary Figure 12a", "result": "148 ng/mL and 180 ng/mL"},
      {"measurement": "Concentration", "setting": "i.v., Time 1 h, individual animals, Supplementary Figure 12a", "result": "168.8 ng/mL and 187.8 ng/mL"},
      {"measurement": "Concentration", "setting": "i.v., Time 1 h, individual animals, Supplementary Figure 12b", "result": "1480 ng/mL and 1110 ng/mL"},
      {"measurement": "Concentration", "setting": "i.v., Time 2 h, individual animals, Supplementary Figure 12a", "result": "50 ng/mL and 64 ng/mL"},
      {"measurement": "Concentration", "setting": "i.v., Time 2 h, individual animals, Supplementary Figure 12b", "result": "498 ng/mL and 604 ng/mL"},
      {"measurement": "Concentration", "setting": "i.v., Time 4 h, individual animals, Supplementary Figure 12a", "result": "45.8 ng/mL and 21 ng/mL and 26 ng/mL"},
      {"measurement": "Concentration", "setting": "i.v., Time 4 h, individual animals, Supplementary Figure 12b", "result": "244 ng/mL and 464 ng/mL"},
      {"measurement": "Concentration", "setting": "i.v., Time 7 h, individual animals, Supplementary Figure 12a", "result": 12.78, "unit": "ng/mL"},
      {"measurement": "Concentration", "setting": "i.v., Time 7 h, individual animals, Supplementary Figure 12b", "result": "206 ng/mL and 134 ng/mL and 272 ng/mL"},
      {"measurement": "Concentration", "setting": "i.v., Time 16 h, individual animals, Supplementary Figure 12b", "result": "25.9 ng/mL and 66.9 ng/mL and 61.2 ng/mL"},
      {"measurement": "Concentration", "setting": "i.v., Time 24 h, individual animals, Supplementary Figure 12b", "result": "6.26 ng/mL and 32.6 ng/mL and 25 ng/mL"},
      {"measurement": "Concentration", "setting": "p.o., Time 0.167 h, individual animals, Supplementary Figure 12a", "result": "145.8 ng/mL and 107.6 ng/mL and 206 ng/mL and 132.6 ng/mL and 193 ng/mL"},
      {"measurement": "Concentration", "setting": "p.o., Time 0.167 h, individual animals, Supplementary Figure 12b", "result": 181, "unit": "ng/mL"},
      {"measurement": "Concentration", "setting": "p.o., Time 0.5 h, individual animals, Supplementary Figure 12a", "result": "788 ng/mL and 600 ng/mL"},
      {"measurement": "Concentration", "setting": "p.o., Time 1 h, individual animals, Supplementary Figure 12a", "result": "1006 ng/mL and 784 ng/mL and 260 ng/mL and 1464 ng/mL and 1172 ng/mL and 1344 ng/mL"},
      {"measurement": "Concentration", "setting": "p.o., Time 2 h, individual animals, Supplementary Figure 12a", "result": "2100 ng/mL and 1302 ng/mL"},
      {"measurement": "Concentration", "setting": "p.o., Time 4 h, individual animals, Supplementary Figure 12a", "result": "2980 ng/mL and 1762 ng/mL"},
      {"measurement": "Concentration", "setting": "p.o., Time 7 h, individual animals, Supplementary Figure 12a", "result": "1768 ng/mL and 1234 ng/mL"},
      {"measurement": "Concentration", "setting": "p.o., Time 16 h, individual animals, Supplementary Figure 12a", "result": "414 ng/mL and 996 ng/mL and 1288 ng/mL"},
      {"measurement": "Concentration", "setting": "p.o., Time 24 h, individual animals, Supplementary Figure 12a", "result": "996 ng/mL and 508 ng/mL and 280 ng/mL"}
    ]}
  ]
}
